Among the data in the METLIN SMRT retention time set (Domingo-Almenara et al. 2019) are RP-LC retention time values, retold here.

Each structure is given as a SMILES string.

This data set can be described thus: gradient 5% acetonitrile 3 min, to 50% in 2 min, to 85% in 15 min, held 3 min, 100 µL/min. Particulars: column: Zorbax Extend-C18 2.1 x 50 mm; eluents: water / acetonitrile, 0.1% formic acid. The essentials:
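Data were gathered over 3 months by HPLC coupled to a quadrupole time-of-flight mass spectrometer, operated in positive and negative ionization mode. Mixtures of ~100 pure standards ran on a Zorbax Extend-C18 column (2.1 × 50 mm, 1.8 μm) at 100 μL/min, with water and acetonitrile each containing 0.1% formic acid and dead and dwell volumes of 40 μL and 900 μL. Retention time was read from adduct peaks picked by computer and checked manually.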
`O=C(Cc1ccccc1Br)Nc1cc(-c2cccs2)no1` displayed an RP-LC retention time of 973 s. Consider `CCOc1ccc(C2Cn3nnc(-c4nc(-c5ccccc5)no4)c3CO2)cc1` (centres undefined), for which the RP-LC retention time is 1200 s. `COCCc1noc(-c2cnc3nc(C)ccc3c2Nc2ccc(Cl)cc2)n1` returned an RP-LC retention time of 760 s.

Consider `Cc1cccc(-c2noc(Cn3ccnc3)n2)c1`, for which the RP-LC retention time is 630 s. As for `CCc1nnc(NS(=O)(=O)c2ccc(NC(=O)c3ccc([N+](=O)[O-])s3)cc2)s1`, the RP-LC retention time came to 769 s. `CCC1Oc2ccc(S(=O)(=O)N3CCC(C(=O)Nc4ccc(OC)cc4)CC3)cc2NC1=O` (centres undefined) registered an RP-LC retention time of 861 s.

`O=S(=O)(NCC1CCN(Cc2ccc(Cl)cc2)CC1)c1ccc2c(c1)-c1oncc1CO2` yielded an RP-LC retention time of 708 s. For `CCN(CCCNC(=O)c1nnc(-c2ccc(S(=O)(=O)N3CCCC3)cc2)o1)c1ccccc1`, the RP-LC retention time amounted to 714 s. Next, `COc1cccc(S(=O)(=O)N2CCC3(CC2)c2nccn2CCN3C)c1`: 607 s; `CCOC(=O)c1c(C)c(CCC(=O)NCCN2CCCCC2)c(C)n1C`: 573 s; `O=C(Nc1ccc(Br)cc1F)C1CCN(S(=O)(=O)Cc2ccccc2)CC1`: 1000 s. As for `CCC(=O)N1c2ccc(S(=O)(=O)N3CCCCC3)cc2CC1C(=O)NCc1ccccc1C` (centres undefined), the RP-LC retention time came to 916 s. The same measure for `CC(=O)Nc1ccc(-c2nc3ccc(C)cc3s2)cc1`: 851 s; for `O=C(Cn1nc2n(c1=O)CCCCC2)Nc1ccc(F)cc1`: 666 s. For the compound `O=C(C1CC(=O)N(c2n[nH]c3ccccc23)C1)N1CCN(CCc2ccccn2)CC1` (centres undefined), the RP-LC retention time turned out to be 551 s. The compound `Cc1nc(-c2cc(S(=O)(=O)Nc3ccc(F)cc3F)c(C)s2)sc1C` came in with an RP-LC retention time of 1090 s.

Take `O=C(CN1CCN(C(=O)Nc2ccc(Br)cc2)CC1=O)NCCC1=CCCCC1`: the RP-LC retention time amounted to 834 s. In the case of `COc1ccccc1C1(CNC(=O)CSc2ccc(F)cc2)CCOCC1`, the RP-LC retention time amounted to 853 s.

Compound `COc1ccc(OCc2nnc3sc(-c4cc5ccccc5o4)nn23)cc1` registered an RP-LC retention time of 984 s.

For `CCc1cc(C(=O)N2CCN(c3ccccn3)CC2)nc2ccnn12`, the RP-LC retention time was found to be 573 s.

`COc1ccc(-c2nnc(-c3ccc(C)c(S(=O)(=O)N4CCC(C(=O)O)CC4)c3)o2)cc1OC` yielded an RP-LC retention time of 785 s. `CCn1c(=O)c(C(=O)NCCCOC(C)C)nc2cccnc21` showed an RP-LC retention time of 728 s.

As to `COC(=O)c1ccc(C(=O)OC)c(=O)[nH]1`, the RP-LC retention time worked out at 638 s. The compound `O=C(Cn1cccc1-c1nc(-c2ccc3c(c2)OCO3)no1)N1CCc2ccccc21` gave an RP-LC retention time of 1090 s. The compound `O=C(Cc1nnc(-c2cnccn2)o1)Nc1cccc(F)c1` gave an RP-LC retention time of 679 s.

`NC(=O)C1CCN(c2oc(-c3ccccc3Cl)nc2S(=O)(=O)c2ccccc2)CC1` registered an RP-LC retention time of 765 s. On to `COc1ccc(-c2noc(-c3cccnc3N3CCN(c4ccc(OC)cc4)CC3)n2)cc1`, for which the RP-LC retention time is 1070 s. Regarding `Cc1nn(-c2ccccc2)c(C)c1S(=O)(=O)N1CCC(C(=O)N2CCCc3ccccc32)CC1`, the RP-LC retention time amounted to 1040 s.

Take `CCCn1cc(C(=O)NCC(=O)OCC)c(S(=O)(=O)N2CCN(c3cccc(Cl)c3)CC2)n1`: the RP-LC retention time was found to be 1060 s. For `COc1ccc(CC(=O)Nc2nnc(C3CC(=O)N(c4ccc(Cl)cc4)C3)o2)cc1` (centres undefined), the RP-LC retention time was found to be 761 s. The same measure for `COC(=O)c1cccc(NC(=O)c2cnc3c(c2)c(=O)n(C)c(=O)n3-c2ccccc2)c1`: 874 s; for `COc1ccc2nc(C(=O)NC(C)c3ccccc3)cn2n1` (centres undefined): 803 s; for `CC(C)C(NC(=O)CCc1ccccc1)C(=O)Nc1nc2ccccc2[nH]1` (centres undefined): 718 s. With `Cc1ccc(C(=O)Nc2nc(-c3ccc4c(c3)NC(=O)CO4)cs2)cc1`, the RP-LC retention time turned out to be 873 s. `COC(=O)c1c(NCC(C)O)c2cc(F)ccc2[nH]c1=O` (centres undefined) displayed an RP-LC retention time of 596 s.

`Cn1c(N2CCC(C(=O)N3CCN(c4ccccc4F)CC3)CC2)cc(=O)n(C)c1=O`: the RP-LC retention time is 716 s. `CCOc1cc(C(=O)Nc2cc(=O)n(C)c(=O)n2C)cc(OCC)c1OCC` came in with an RP-LC retention time of 691 s. `Cc1ccc(-n2c(=O)c3sccc3n(Cc3nc(-c4ccc(Br)cc4)no3)c2=O)cc1` yielded an RP-LC retention time of 1110 s.

In turn, `CN(C)C(=O)CN1CCN(c2cc(C(=O)O)c3cc(NC(=O)c4ccccc4F)ccc3n2)CC1` registered an RP-LC retention time of 580 s. The compound `Cc1ccc(C2c3[nH]c4ccccc4c3CCN2C(=O)C2CCC2)cc1` (centres undefined) yielded an RP-LC retention time of 1200 s. For the compound `O=C(NCc1cccnc1)C1c2ccccc2C(=O)N1Cc1ccc2c(c1)OCO2` (centres undefined), the RP-LC retention time stood at 609 s. As to `CCN1CCCC1CNC(=O)C1CCN(S(=O)(=O)c2ccc(-c3noc(C4CC4)n3)cc2)CC1` (centres undefined), the RP-LC retention time was 679 s. `O=C(NCc1csc(-c2ccccc2)n1)C1CCN(S(=O)(=O)c2ccc(Cl)s2)CC1` came in with an RP-LC retention time of 995 s. The same measure for `CCOc1ccc(S(=O)(=O)N2CCC(C(=O)NCCO)CC2)cc1C`: 699 s. `Cc1ccc(NC(=O)N2CCC(CN3CCCC(C)C3)CC2)cc1` (centres undefined) came in with an RP-LC retention time of 613 s.

Consider `COc1c(O)ccc2c1CN1CCc3cc4c(cc3C1C2)OCO4` (centres undefined), for which the RP-LC retention time was determined as 688 s.

`CCOc1ccccc1NC(=O)N1CCCC(C)(C(=O)NCc2ccc(F)cc2)C1` (centres undefined): the RP-LC retention time is 983 s. In the case of `O=C(c1nnc(-c2ccc(S(=O)(=O)N3CCCCC3)cc2)o1)N1CCCCCC1`, the RP-LC retention time stood at 1010 s.

`COc1ccc(NC(=O)Nc2nccn(-c3cccc(F)c3)c2=O)cc1OC` had an RP-LC retention time of 798 s. `CC(C)(C)C(=O)N1CCCC(c2nc(CCNC(=O)C3CC3)cs2)C1` (centres undefined) had an RP-LC retention time of 710 s. Compound `CC(=O)c1cccc(NC(=O)Cn2cccc2-c2nnc(C3CCC3)o2)c1` yielded an RP-LC retention time of 831 s. For `CC(C)S(=O)(=O)N1CCC(F)(c2nc(-c3ccccc3)no2)CC1`, the RP-LC retention time stood at 1020 s. With `Cc1ccc(CNC(=O)CN2C(=O)C3CCCCN3c3ccc(S(=O)(=O)N(C)C)cc32)cc1` (centres undefined), the RP-LC retention time is 922 s. `CN(C)C(=O)c1n[nH]c2c1CN(C(=O)c1cc(F)cc(F)c1)CC2`: the RP-LC retention time came out at 635 s. As for `COc1ccccc1NC(=O)CN1C(=O)C(c2ccc(Cl)cc2)=NC1(C)C`, the RP-LC retention time is 922 s. Regarding `COc1ccc(OC)c2sc(NCc3ccccn3)nc12`, the RP-LC retention time stood at 585 s. The same measure for `CC(C)CN1CCN(C(=O)c2ccc(-c3ccnc(N4CCCC4)n3)cc2)CC1`: 587 s; for `COCCN1C(=O)CCc2cc(NS(=O)(=O)c3cc(C)ccc3C)ccc21`: 1060 s. `Cc1ccc(Cn2c(N3CCCC(C(=O)Nc4cccc(C)c4)C3)nc3ccsc3c2=O)cc1` (centres undefined) gave an RP-LC retention time of 1080 s.
